From publication PMC10269878 (Microbiology Spectrum, 2023)

Experiments:
melioidosis = settings: in vivo; cited from earlier work
[1] = mouse, in vivo
in vivo = settings: mouse, po, 100 mg/kg

In the case of `C[C@H]1c2cccc(O)c2C(=O)C2=C(O)[C@]3(O)C(=O)C(C(N)=O)=C(O)[C@@H](N(C)C)[C@@H]3[C@@H](O)[C@@H]21` [Doxycycline, doxycycline monohydrate], the “Efficacy alone to clear melioidosis” value (melioidosis) is given as “ineffective alone to clear melioidosis”, the “Doxycycline Absorption (ka)” value [1] is given as 1.68 h⁻¹ and the AUC(0-t) (in vivo) is given as 12700 ng·h/mL. For the same compound, the Tmax (in vivo) was 1.24 h, the half-life (in vivo) was 2.56 h and the k el (in vivo) was 7.5e-05 s⁻¹.
